Experimental data: article PMC6562672, “Dose-Dependent Sorafenib-Induced Immunosuppression Is Associated with Aberrant NFAT Activation and Expression of PD-1 in T Cells” (Cancers, 2019)
Read-outs that look alike come from different tables or passages of the source.

How the values were obtained:
PD-1 = test: PD-1, CD8 and CD25 expression on T cells by imaging flow cytometry; assay type: cell-based, human
Experimental: (§1) PBMCs were allowed to ‘recover’ in AIM-V medium (Thermo Fisher Scientific) at 37 °C, 5% CO2 in a humidified atmosphere overnight. 2 × 10^6 cells were treated with 0–10 µM sorafenib for the durations specified in the results section. If the experimental conditions required T cell stimulation, samples were co-treated (stimulated) with 1 µg/mL anti-CD3 and 1 µg/mL anti-CD28 for 2 h. Following treatment, PBMCs were placed on ice to stop drug action and immunophenotyped for CD4, CD8, CD25, and PD-1 (CD279). NFAT1 was detected by indirect labeling. Antibodies were diluted in permeabilization wash buffer (PWB) consisting of 0.1% Triton-X-100 in FCM Buffer (1× phosphate buffered saline (PBS) + 0.5%BSA). The primary Rabbit polyclonal NFAT1 antibody was diluted 1:50 in PWB. Following this, 1:200 dilution of secondary AF647 conjugated F(ab’)2 fragment donkey anti rabbit IgG antibody (Jackson ImmunoResearch Laboratories Inc., West Grove, PA, USA) was added. Just prior to data acquisition on the ImageStream, DAPI was added to all samples (0.5 µg/mL final concentration), to stain the nucleus.
(§2) Imaging flow cytometry acquisition, compensation, and analysis was performed on an imaging flow cytometer (ImagestreamX Mk-II; Amnis, part of MilliporeSigma, Seattle, WA, USA) as described previously. Following compensation for spectral overlap, image analysis was performed with IDEAS® software (Amnis, Seattle, WA, USA). To assess nuclear NFAT1 translocation, the corresponding nuclear image and NFAT1 image of each cell was compared and a Similarity Score (SS) was assigned for individual cells using published methods (Figure S3).

[1] = cited from earlier work
woodchuck T cells = test: One-way mixed lymphocyte reaction (MLR), woodchuck T cells, CFSE; assay type: cell-based; conditions: woodchuck vs. human MLR, 0–10 µM, dose responsive, 96 h
Experimental: Flow cytometry acquisition and compensation was performed on a LSR Fortessa (BD Biosciences, San Jose, CA, USA). Analysis of listmode data was performed using Winlist 8.0 (Verity Software House, Inc., Topsham, ME, USA). Briefly, the viable responder lymphocytes were hierarchically gated for single, low side scatter, viable cells with absent CD45 labeling. The percentage of proliferating cells was determined based on CFSE dye dilution compared to the CFSE labeling intensity from the non-proliferating MLR negative control sample. The full list of antibodies and reagents used in assays is available in Table S1.
Mixed lymphocyte reactions were performed in human (human vs. human, Figure 1E) and woodchucks (woodchuck vs. human, Figure 1F). 10 mL peripheral blood from healthy donors and 3 mL woodchuck peripheral blood isolated. Stimulator cells (human cells for both assays) were irradiated at 40 Gy in a Mark I Cesium-137 irradiator for 20 min. Following irradiation, cells were stained for CD45-APC (BD Biosciences, San Jose, CA, USA). Responder cells (non-irradiated human or woodchuck cells) were labeled with CFSE (Thermo Fisher Scientific, Eugene, OR, USA). Target and responder cells were placed in a round bottom 96 well polypropylene plate at a 2:1 ratio in the presence of 0–10 µM sorafenib and incubated at 37 °C for 96 h. […]

NFAT1 = NFAT1 nuclear translocation in T cells by imaging flow cytometry (similarity score); assay type: cell-based, human; conditions: for nuclear translocation of NFAT1: non-stimulated CD8+ T cells
Experimental: as §1, §2

HCC = test: Tumor histology: H&E necrosis and CD3 immunohistochemistry; assay type: in vivo, woodchuck (Marmota monax)
Experimental: Tumor specimens were diagnosed as HCC based on the established classification of neoplastic liver lesions. After standard processing and embedding in paraffin, 4 μm sections were prepared, deparaffinized, stained with hematoxylin-eosin (H&E), studied with a Zeiss Axio Imager A1 microscope (Carl Zeiss, Oberkochen, Germany) by a pathologist blinded to the treatment arm. Morphometric study of areas of necrosis was compared to the size of the tumor sections by counting view fields at medium objective magnification. IHC staining with mouse anti-rat CD3 (BD Biosciences, San Jose, CA, USA) was performed on […] paraffin sections of posttreatment tumor tissues obtained after tumor reached over 2 cm. Images of at least 7 randomly selected fields (unit area of each field, 0.34 mm^2) were captured by observers blinded to sample identity. Identical exposure times and image settings were used within each experiment. Images were analyzed with ImageJ software (http://rsb.info.nih.gov/ij, Bethesda, MD, USA).

[2] = Treatment toxicity in WHV-infected woodchucks (general performance, CBC, biochemistry); assay type: in vivo, woodchuck (Marmota monax)
Experimental: General performance statuses of animals were evaluated such as moving activity, appetite, defecation, urination, and weight changes regularly. In addition, CBC and blood biochemistry were measured two times per month during the course of experiment by ProCyte Hematology and Catalyst Chemistry Analyzers (IDEXX, Hoofddorp, The Netherlands).

[3] = high dose (10 µM), PD-1+ T cells

**Q.** Which results are given for `CNC(=O)c1cc(Oc2ccc(NC(=O)Nc3ccc(Cl)c(C(F)(F)F)c3)cc2)ccn1` [sorafenib, Sorafenib]?
**A.** proportion of CD4+CD25bright T cells (PD-1; dose-dependent manner, % of total CD4+ cells): decrease; CD8 expression in PD-1+ cells (PD-1; [3]): decreased; NFAT1 activation and decreased expression of CD8 in PD-1 negative T cells (PD-1; high dose (10 µM), PD-1 negative T cells): not observed; proportion of PD-1-expressing CD8+ and CD4+ T cells (PD-1; high dose (10 µM), without exogenous stimulatory factors): increased; plasma concentration of sorafenib in clinical trials ([1]; clinical trials): approximately 2 mg/L; plasma concentration of sorafenib in clinical trials ([1]; conversion of 2 mg/L): 4 µM; time to steady-state concentrations ([1]; patients, multiple oral dosing): 7 days; MLR response (T cell proliferation) (woodchuck T cells): inhibition of the woodchuck MLR response; nuclear translocation of NFAT1 (NFAT1; 10 µM, 1 h exposure): no significant increase; nuclear translocation of NFAT1 (NFAT1; 10 µM, 4 h exposure): most significant increase; effect on PMA/ionomycin-induced T cell stimulation (NFAT1) (NFAT1; 10 µM, PMA/ionomycin stimulation, lesser extent than CD3/CD28): inhibitory effect; baseline activity of NFAT1 in T cells (NFAT1; 10 µM, absence of CD3/CD28 stimulation): significantly increased; anti-CD3/CD28-induced NFAT1 activity (NFAT1; 10 µM, presence of CD3/CD28 stimulation): significantly inhibited; NFAT1 activation in PD-1+ cells (NFAT1; [3]): increased; NFAT1 activation (NFAT1; lower doses of sorafenib, absence of exogenous stimulatory factors): not observed; necrotic change of HCC (H&E) (HCC; high dose vs placebo, tumor over 2 cm, p = 0.02): significantly large necrotic change; necrotic change of HCC (H&E) (HCC; high vs low dose, p = 0.07): no statistical difference; CD3+ cell infiltration in tumors (HCC; low dose compared to high dose): More CD3+ cells; CD3+ cell infiltration in tumors (HCC; low dose vs placebo): no statistical difference; general performance change (moving activity, appetite, defecation, urination, weight changes) ([2]; 2.5 and 5.0 mg/kg/day oral, all treatment groups): not detected; CBC and biochemistry analyses among the three groups ([2]; end of experiment, placebo vs 2.5 vs 5.0 mg/kg/day): no statistical difference
